Measurements from patent US7396814B2, “Metallopeptide compositions for treatment of sexual dysfunction” (Palatin Technologies, Inc., priority 1995, dated 2008).
Non-standard residues stand in square brackets, D forms with d. *: point of attachment. dPhe(4-Cl) = N[C@H](Cc1ccc(Cl)cc1)C(=O)O; Heptanoyl = CCCCCCC(=O)*; Nle = CCCC[C@H](N)C(=O)O; Bn = c1ccc(C*)cc1

Tests used:
hMC3-R = target: T1, hMC3-R (Homo sapiens, UniProt P41968); test: Competitive inhibition binding assay, 125I-NDP-MSH, hMC3-R; conditions: 1 μM metallopeptide; 0.4 nM 125I-NDP-MSH; hMC3-R membranes
T1 construct: expressed in transfected cells
T1 sequence (P41968 whole entry): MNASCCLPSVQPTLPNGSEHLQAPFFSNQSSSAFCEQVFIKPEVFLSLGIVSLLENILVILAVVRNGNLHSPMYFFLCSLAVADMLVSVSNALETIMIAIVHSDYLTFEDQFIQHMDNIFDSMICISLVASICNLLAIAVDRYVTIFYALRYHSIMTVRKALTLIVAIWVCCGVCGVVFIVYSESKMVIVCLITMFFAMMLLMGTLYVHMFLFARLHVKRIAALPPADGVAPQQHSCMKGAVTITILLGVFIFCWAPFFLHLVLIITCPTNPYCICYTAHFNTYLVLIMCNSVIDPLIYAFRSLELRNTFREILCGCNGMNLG
Protocol: (§1) A competitive inhibition binding assay was conducted using membranes prepared from hMC3-R, hMC4-R, hMC5-R, and B-16 mouse melanoma cells (containing MC1-R) using 0.4 nM ^125I-NDP-MSH (0.2 nM for MC1-R) (New England Nuclear, Boston, Mass., USA) in 50 mM HEPES buffer containing 1 mM MgCl2, 2 mM CaCl2, and 5 mM KCl, at pH 7.2. The assay tube also contained a chosen concentration of the metallopeptides of this invention, at a 1 μM concentration, for determining inhibition of the binding of ^125I-NDP-MSH to its receptor. Non-specific binding was measured by complete inhibition of binding of ^125I-NDP-MSH in the assay in the presence of 1 μM α-MSH. Incubation was for 90 minutes at 37° C., after which the assay mixture was filtered and the membranes washed three times with ice cold buffer. The filter was dried and counted in a gamma counter for remaining radioactivity bound to the membranes. 100% specific binding was defined as the difference in radioactivity (cpm) bound to cell membranes in the absence and presence of 1 μM α-MSH. The cpm obtained in the presence of metallopeptides of this invention were normalized with respect to 100% specific binding to determine the percent inhibition of ^125I-NDP-MSH binding. Each assay was conducted in triplicate.

hMC5-R = target: T2, hMC5-R (Homo sapiens, UniProt P33032); test: Competitive inhibition binding assay, 125I-NDP-MSH, hMC5-R; conditions: 1 μM metallopeptide; 0.4 nM 125I-NDP-MSH; hMC5-R membranes
T2 construct: expressed in transfected cells
T2 sequence (P33032 whole entry): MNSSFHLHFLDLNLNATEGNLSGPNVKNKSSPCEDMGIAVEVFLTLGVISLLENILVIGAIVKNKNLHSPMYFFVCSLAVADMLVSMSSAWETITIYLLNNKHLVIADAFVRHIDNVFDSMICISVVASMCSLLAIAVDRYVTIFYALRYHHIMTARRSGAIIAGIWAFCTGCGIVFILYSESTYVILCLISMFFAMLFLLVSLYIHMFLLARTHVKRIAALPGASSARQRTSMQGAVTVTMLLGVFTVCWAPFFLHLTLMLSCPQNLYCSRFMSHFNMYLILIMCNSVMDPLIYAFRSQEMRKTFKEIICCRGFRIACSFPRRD
Protocol: as §1

hMC4-R = target: T3, hMC4-R (Homo sapiens, UniProt P32245); test: Competitive inhibition binding assay, 125I-NDP-MSH, hMC4-R; conditions: 1 μM metallopeptide; 0.4 nM 125I-NDP-MSH; hMC4-R membranes
T3 construct: expressed in transfected cells
T3 sequence (P32245 whole entry): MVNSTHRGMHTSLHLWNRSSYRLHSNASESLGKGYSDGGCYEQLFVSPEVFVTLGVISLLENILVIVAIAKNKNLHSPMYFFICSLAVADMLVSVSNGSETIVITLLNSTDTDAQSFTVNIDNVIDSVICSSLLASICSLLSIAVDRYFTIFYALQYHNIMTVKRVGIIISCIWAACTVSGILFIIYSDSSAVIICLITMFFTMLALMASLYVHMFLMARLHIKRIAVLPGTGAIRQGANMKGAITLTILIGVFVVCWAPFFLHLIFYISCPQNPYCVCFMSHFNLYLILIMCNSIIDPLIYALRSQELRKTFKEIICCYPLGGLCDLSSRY
Protocol: as §1

[1] = target: T4, MC1-R (B-16 mouse melanoma cells) (Mus musculus, UniProt Q01727); test: Competitive inhibition binding assay, 125I-NDP-MSH, MC1-R; conditions: 1 μM metallopeptide; 0.2 nM 125I-NDP-MSH; B-16 mouse melanoma cell membranes
T4 construct: membranes prepared from hMC3-R, hMC4-R, hMC5-R, and B-16 mouse melanoma cells (containing MC1-R); endogenous in cells; host or cells: B-16 mouse melanoma cells
T4 sequence (Q01727 whole entry): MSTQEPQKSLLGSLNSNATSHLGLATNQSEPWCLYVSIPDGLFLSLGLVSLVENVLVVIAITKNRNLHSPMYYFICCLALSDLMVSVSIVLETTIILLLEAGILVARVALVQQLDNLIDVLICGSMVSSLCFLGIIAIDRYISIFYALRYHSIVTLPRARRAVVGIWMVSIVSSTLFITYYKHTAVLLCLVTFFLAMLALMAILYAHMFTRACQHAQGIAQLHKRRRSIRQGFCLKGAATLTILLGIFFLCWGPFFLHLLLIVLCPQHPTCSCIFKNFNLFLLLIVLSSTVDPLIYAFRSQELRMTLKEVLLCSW
Protocol: as §1

Substance: Ac-[Nle]AH[dF]CR-OH
- Percent Inhibition at 1 μM MC3-R (hMC3-R): 0%
- Percent Inhibition at 1 μM MC5-R (hMC5-R): 9%
- Percent Inhibition at 1 μM MC4-R (hMC4-R): 23%
- Percent Inhibition at 1 μM MC1-R [1]: 14%

Substance: Ac-[Nle]AH[dF]RC-OH
- Percent Inhibition at 1 μM MC3-R (hMC3-R): 0%
- Percent Inhibition at 1 μM MC5-R (hMC5-R): 12%
- Percent Inhibition at 1 μM MC4-R (hMC4-R): 37%
- Percent Inhibition at 1 μM MC1-R [1]: 18%

Substance: Ac-[Nle]AH[dF]RGC-OH
- Percent Inhibition at 1 μM MC3-R (hMC3-R): 3%
- Percent Inhibition at 1 μM MC5-R (hMC5-R): 23%
- Percent Inhibition at 1 μM MC4-R (hMC4-R): 27%
- Percent Inhibition at 1 μM MC1-R [1]: 26%

Substance: Heptanoyl-S(Bn)[dPhe(4-Cl)]RC-NH2
- Percent Inhibition at 1 μM MC3-R (hMC3-R): 13%
- Percent Inhibition at 1 μM MC5-R (hMC5-R): 26%
- Percent Inhibition at 1 μM MC4-R (hMC4-R): 38%
- Percent Inhibition at 1 μM MC1-R [1]: 30%
